The record followed here is patent US6251894A, “1-(1,2-disubstituted piperidinyl)-4 (fused imidazole)-piperidine derivatives” (Janssen Pharmaceuticals N.V., priority 1995, dated 2001).

Read-outs that look alike come from different tables or passages of the source.

In assay [1] the test system is Substance P Induced Relaxation of the Pig Coronary Arteries. Put plainly: Antagonism of substance P induced relaxation of the pig coronary arteries. As to conditions: test compound concentration 3 × 10^-9 (unit not given), 30 min incubation. Put shortly:
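Inverted pig coronary artery segments, endothelium outside, in Krebs-Henseleit at 37 °C (95/5 O2/CO2), isometric tension recorded. After prostaglandin F2α (10^-5 M) precontraction, substance P (3×10^-10 M and 10^-9 M cumulative) relaxation repeated after 30 min incubation with test compound.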

The subject of assay [2] is Substance P Induced Plasma Extravasation. Kind of assay: Antagonism of substance P induced plasma extravasation in guinea-pigs. The assay is classed as in vivo, guinea-pig. As to conditions: Cavia porcellus, sc, s.c., 1 hour prior to substance P. In a few lines:
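Female guinea-pigs; compound or solvent given s.c. or p.o. 1 h before substance P (2 mg/kg, femoral artery) plus Evans Blue (30 mg/kg). Blue colouring of nose, forepaws, conjunctiva scored at 10 min; trachea and urinary bladder at 30 min after CO2 sacrifice. Values are lowest active doses in mg/kg.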

Take `Cc1cc(C)cc(C(=O)N2CC[C@@H](N3CCC(=C4c5ccsc5C(=O)Cn5ccnc54)CC3)C[C@@H]2Cc2ccccc2)c1` (relative stereo) [Compound 112]: the “% inhibition of the response to 10^-9 M substance P” value in assay [1] is listed as 66.7%. Moreover, the minimal effective dose in assay [2] (10 min, conjunctiva, read-out: lowest active dose (LAD), conjunctiva) turned out to be 0.63 mg/kg; in assay [2] (10 min, forepaws, read-out: lowest active dose (LAD), forepaws) it was 0.63 mg/kg; in assay [2] (10 min, nose, read-out: lowest active dose (LAD), nose), 0.63 mg/kg; in assay [2] (0.5 h, trachea, read-out: lowest active dose (LAD), trachea) it was 10 mg/kg; in assay [2] (0.5 h, urinary bladder, read-out: lowest active dose (LAD), urinary bladder) it was 2.5 mg/kg.
